For the test, the system named is NCI-H1417 cells. The experiment in a line: Proliferation inhibitory activity against NCI-H1417 cells (CellTiter-Glo). Particulars: Homo sapiens, 240 h, 10 days incubation, starting concentration 10 μM, read-out: IC50 (nM), NCI-H1417 cell proliferation inhibition. Format: cell-based. The method, then: Experimental purpose: To detect the inhibitory activity of the compounds against NCI-H1417 cells.
Experimental materials: RPMI 1640 medium, fetal bovine serum, Promega CellTiter-Glo reagent. The NCI-H1417 cell line was purchased from ATCC. Envision multilabel analyzer (PerkinElmer).
Experimental method: The compounds were dissolved to 10 mM, and the compounds were diluted 5 times with DMSO in the compound plate. The starting concentration of the compound was 2 mM, diluted 3 times with Bravo to 10 concentrations. Echo was used to transfer 250 nL to the top and bottom double wells of a blank 384 cell plate, and 250 nL of DMSO/compound was added to a cell suspension of 1000 cells/50 μL per well, and the compounds were diluted 200 times, i.e. the starting concentration was 10 μM. Cell plates were incubated in a carbon dioxide incubator for 10 days. 25 μL of Promega CellTiter-Glo reagent per well was added to the cell plate, and the mixture was shaken for 10 minutes at room temperature to stabilize the luminescence signal. Readings were taken using a PerkinElmer Envision multilabel analyzer.
Data analysis: The equation (Max-Ratio)/(Max-Min)*100% was used to convert the original data into inhibition rate, the IC50 value can be obtained by curve fitting with four parameters. (derived from 205 mode in XLFIT5, iDBS)
(In general: ATP-based viability assays read luminescence as a measure of living cells.)

Each structure is given as a SMILES string. Structures can show the parent of a compound that is named as a salt.

Turning to `CC(C)(O)Cn1nnc2cc(-c3cn(CC(=O)N4CCC[C@@H](N)C4)nc3-c3ccc(C#N)c(F)c3)ccc21` [Hydrochloride of compound 22], the IC50 was found to be 107 nM.

These data come from patent US11524941B2, “Pyrazole compounds as LSD1 inhibitors and applications thereof” (MEDSHINE DISCOVERY INC., priority 2020, dated 2022).
